Laboratory results: patent US20210123061A1, “METHODS AND COMPOSITIONS FOR TREATING INFLAMMATORY DISEASE OR DISORDER” (THE BRIGHAM AND WOMEN'S HOSPITAL, INC., priority 2018, published 2021)

Tested on: RXXpS/T, RPS6-pSer235/236, PRAS40-pThr246
Test: Immunoblot of RXXpS/T motif, RPS6 and PRAS40 phosphorylation in macrophages
Format: cell-based, human
Procedure: FIGS. 6A-6C show phospho-proteomics identified RSK substrates in human PBMC-derived macrophages. (FIG. 6A) Scheme of phospho-proteomics. Human PBMC-derived macrophages were treated with DMSO or BI-D1870 for two hours followed by IFN-γ stimulation for subsequent proteolysis and phospho-peptide enrichment using the anti-RXXpS/T antibody strategy. (FIG. 6B) Cell lysates were subjected to immunoblot analysis with anti-RPS6-pSer235/236, anti-RPS6, anti-PRAS40-pThr246, anti-PRAS40, or anti-Tubulin. N=2 donors. […] The average shortest distance of the same number of randomly selected genes to disease genes was calculated for N=250 realizations in order to compare the average shortest distance value to random expectation. Empirical p-values were calculated based on 100 degree-preserved randomizations of the first neighbor networks.
FIGS. 15A-15C show RXXpS/T pattern in human IFN-γ-stimulated macrophages. (FIG. 15A) Human PBBMC-derived macrophages were treated with DMSO or 10 μM BI-D1870 for 2 hours followed by stimulation with IFN-γ for 1 hour. Cell lysates were subjected to immunoblot analysis with anti-RXXpS/T antibody. (FIG. 15B) Four ellipse Venn diagram showing numbers of detected phospho-peptides in each sample. (FIG. 15C) A flow chart of screening for RSK-substrates in human macrophages. We identified 24 candidates including RPS6 and AKT1S1/PRAS40 as RSK-substrates. […]

With `CC(C)CCN1c2nc(Nc3cc(F)c(O)c(F)c3)ncc2N(C)C(=O)C1C` (centres unmarked) [BI-D1870] the “anti-RXXpS/T immunoblot signal intensities” value (10 μM for 2 hours, then IFN-γ 1 hour) was “decrease in signal intensities” and the “RPS6-pSer235/236 and PRAS40-pThr246 immunoblot” value (IFN-γ versus RSK-inhibition, two donors) was “confirming the changes”.
